Experimental data reported in patent US20250082598A1, “Melafenoxate, 2-(1-adamantylamino)ethyl 2-(4-chlorophenoxy)acetate and derivatives thereof for treating circadian rhythm sleep disorders with neurodegenerative diseases such as Alzheimer's disease” (NLS Pharmaceutics AG, priority 2021, published 2025).

How the values were obtained:
5-HT1A (h) = target: T1, 5-HT1A (h) (Homo sapiens, UniProt P08908); assay: Radioligand binding, 5-HT1A (h); details: 10^−5 M; agonist radioligand
T1 construct: CEREP (Eurofins, France)
T1 sequence (P08908 1-422): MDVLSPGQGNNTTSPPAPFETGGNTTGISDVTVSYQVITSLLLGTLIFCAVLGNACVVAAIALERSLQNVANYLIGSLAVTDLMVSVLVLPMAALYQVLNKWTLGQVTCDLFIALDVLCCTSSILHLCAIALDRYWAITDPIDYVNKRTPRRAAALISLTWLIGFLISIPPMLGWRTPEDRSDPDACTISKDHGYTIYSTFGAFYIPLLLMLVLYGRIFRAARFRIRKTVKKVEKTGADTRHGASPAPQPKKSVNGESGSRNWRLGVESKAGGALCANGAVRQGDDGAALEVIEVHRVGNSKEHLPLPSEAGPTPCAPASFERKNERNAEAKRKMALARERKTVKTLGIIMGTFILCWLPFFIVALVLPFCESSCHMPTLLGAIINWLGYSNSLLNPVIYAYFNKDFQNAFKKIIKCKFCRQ
Protocol: (§1) Melafenoxate was tested at 10^−5 M, calculated as a % inhibition of control specific binding of a radioactively labeled ligand specific for each target.
(§2) This binding profile panel was broadly defined with roughly an equal number of selective, central and peripheral therapeutically relevant targets, including native animal tissues, radioligands and specific enzymes involved in cell cycle regulation in accordance with Eurofins Standard Operating Procedure.
(§3) For radioligand binding experiments, the half maximal inhibitory concentration (IC50) and the half maximal effective concentration (EC50) values were determined (via computer software) by nonlinear regression analysis of the competition curves using Hill equation curve fitting. The inhibition constants (Ki) were calculated using the Cheng-Prusoff equation (Ki=IC50/(1+(L/KD)), where L is the concentration of radioligand in the assay, and KD is the affinity of the radioligand for the receptor.^49
(§4) The results are expressed as a % control specific binding ([measured specific binding/control specific binding]×100) and as a % inhibition of control specific binding (100−[(measured specific binding/control specific binding)×100]) obtained in the presence of the test compounds. […]

NET (h) = target: T2, NET (h) (Homo sapiens, UniProt P23975); assay: Radioligand binding, NET (h); details: 10^−5 M; antagonist radioligand
T2 construct: Eurofins
Protocol: as §1, §2, §3, §4

T2 sequence (P23975 whole entry): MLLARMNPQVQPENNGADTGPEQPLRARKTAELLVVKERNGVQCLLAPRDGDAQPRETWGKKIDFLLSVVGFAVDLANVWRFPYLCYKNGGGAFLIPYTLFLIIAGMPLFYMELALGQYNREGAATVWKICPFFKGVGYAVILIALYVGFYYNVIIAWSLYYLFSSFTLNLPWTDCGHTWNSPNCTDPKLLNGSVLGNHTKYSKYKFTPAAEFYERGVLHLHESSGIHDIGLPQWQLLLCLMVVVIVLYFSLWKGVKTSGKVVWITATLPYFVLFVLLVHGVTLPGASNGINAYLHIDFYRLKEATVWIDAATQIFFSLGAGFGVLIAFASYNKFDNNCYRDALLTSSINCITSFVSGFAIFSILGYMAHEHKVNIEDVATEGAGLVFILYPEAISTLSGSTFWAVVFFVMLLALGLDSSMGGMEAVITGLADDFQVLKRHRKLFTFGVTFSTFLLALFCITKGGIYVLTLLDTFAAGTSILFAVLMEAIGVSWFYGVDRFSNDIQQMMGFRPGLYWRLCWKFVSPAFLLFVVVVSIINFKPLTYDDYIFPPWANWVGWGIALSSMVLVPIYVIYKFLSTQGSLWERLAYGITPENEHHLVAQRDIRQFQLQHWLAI

inhibition at 10 µM (5-HT1A (h)): 10.4%
inhibition at 10 µM (NET (h)): 16.5%
SMILES: O=C(COc1ccc(Cl)cc1)OCCNC12CC3CC(CC(C3)C1)C2 [Melafenoxate, 2-(1-adamantylamino)ethyl 2-(4-chlorophenoxy)acetate]
